According to patent US6872751B2, “Composition and method for augmenting or restoring the production of fetal protein in patient in need thereof” (Centre National de la Recherche Scientifique - CNRS, priority 1999, dated 2005):
Entries after “also recorded” stand apart in the source; their conditions may differ.

Tests used:
utrophin [1] = assay: Utrophin immunofluorescence in XLT (mdx) myotubes; format: cell-based, mouse; conditions: 48 hours
Protocol: (§1) A, a-h: normal cell line (NXTL). B, a′-h′: mdx cell line (XLT). The cell cultures were treated by exposure of the differentiated myotubes to drugs for 48 hours. A, a′: control cultures. B, b′: L-arginine(2.10^−3M). c, c′: SIN-1 (10^−3 M). d, d′: SIN-I (10^−3 M) +L-arginine (10^−3 M). e, e′: D-arginine (10^−3 M). f, f′: L-arginine (10^−3 M)+OQD (10^−5 M). g, g′: L-NMMA (10^−3 M). h, h′: hydroxyurea (10^−4 M).
(§2) Myotubes were obtained from normal cell line (NXLT) and mdx cell line as described by Liberona et al (1998, Muscle & Nerve, 21:902-909), and C2 myotubes as described by Inestrosa et al. (1983, Exp. Cell Res., 147:393-405).
(§3) In vitro. The cultures were treated as described previously with the exception of the second antibody labelled with fluoroscein which was diluted to 1/100 vol/vol. The incubation time was 2 hours for the first and second antibody.

utrophin [2] = assay: Utrophin immunofluorescence in NXLT (normal) myotubes; format: cell-based, mouse; conditions: 48 hours
Protocol: as §1, §2, §3

utrophin [3] = assay: Utrophin immunolocalisation in muscle of mdx mice treated chronically with L-arginine; format: in vivo, mouse; conditions: 200 mg/kg daily intra-peritoneal for three weeks, thigh muscles
Protocol: (§4) Three normal, adult mice aged 18 months (C57 BL/6 line) and three mdx mice were given a daily intra-peritoneal injection of 200 mg/kg L-arginine for three weeks. Two other groups of three adult mice were used as controls and were given a daily injection of physiological serum.
(§5) The mice were sacrificed by ether anaesthesia, the biceps femoris and the semi-tendinous muscles were quickly dissected from the hind limbs of each animal and frozen in liquid nitrogen.
(§6) In vivo. After cold fixing in methanol (−20° C. for 10 minutes) sections of […] were incubated for two hours with utrophin specific monoclonal antibody (NCL-DRP 2, Novacastra) (1/10 vol/vol) in PBS containing 0.1% saponin and 0.2% bovine albumin. The second antibody labelled with fluoroscein (N 1031, Amersham) was diluted (1/4000 vol/vol) in PBS containing 0.1% saponin and incubated for one hour.

utrophin [4] = assay: Utrophin immunoblot of NXLT myotubes; format: cell-based, mouse; conditions: 48 hours, 2.10^-3 M
Protocol: (§7) Imunoblot analysis of utrophin was conducted under control conditions (CTRL) and after 48 hours treatment with 2.10^−3 M L-arginine (L-arg).
as §2
(§8) The myotubes obtained from the NXLT, XLT and C2 lines were homogenized using a Polytron (Kinematica) in 10 mM Tris-HCl pH 6.8, 1% Triton X-100, 1% SOS, 0.5% sodium deoxycholate on ice. The quantity of total proteins was determined following the protocol for the bicinchoninic acid protein test (BCA, Pierce). Equivalent quantities of protein were separated by SOS-Page on 5% gel, then electrotransferred onto a nitrocellulose membrane (Schleicher & Schuell). The membranes were then incubated with the same monoclonal antibody directed against utrophin used for the immunofluorescence techniques (1/250 vol/vol). The fixed antibodies were detected with a Sanofi anti-mouse goat secondary antibody (1/5000 vol/vol) bound to horseradish peroxydase and developed by chemioluminescence reaction (ECL, Amersham Pharmacy Biotech).

utrophin [5] = assay: Utrophin immunoblot of XLT (mdx) myotubes; format: cell-based, mouse; conditions: 48 hours, 2.10^-3 M
Protocol: as §7, §2, §8

utrophin [6] = assay: Utrophin immunolocalisation in muscle of normal adult mice treated chronically with L-arginine; format: in vivo, mouse; conditions: normal adult C57 BL/6 mice, 200 mg/kg daily intra-peritoneal for three weeks, thigh muscles
Protocol: as §4, §5, §6

utrophin [7] = assay: Utrophin immunofluorescence in C2 myotubes; format: cell-based, mouse; conditions: C2 mice myotubes
Protocol: Myotubes were obtained from normal cell line (NXLT) and mdx cell line as described by Liberona et al (1998, Muscle & Nerve, 21:902-909), and C2 myotubes as described by Inestrosa et al. (1983, Exp. Cell Res., 147:393-405). In vitro. The cultures were treated as described previously with the exception of the second antibody labelled with fluoroscein which was diluted to 1/100 vol/vol. The incubation time was 2 hours for the first and second antibody.

utrophin [8] = assay: Utrophin immunofluorescence in primary rat myotubes; format: cell-based
Protocol: as §3

utrophin [9] = assay: Utrophin immunoblot of C2 myotubes; format: cell-based, mouse; conditions: 48 hours, 2.10^-3 M
Protocol: as §7, §2, §8

[10] = ODQ 10^-5 M with L-arginine 10^-3 M

N=C(N)NCCC[C@@H](N)C(=O)O [D-arginine]
utrophin labelling (utrophin [1]; 10^-3 M): absence of any effect | utrophin labelling (utrophin [2]; 10^-3 M): absence of any effect

CNC(=N)NCCC[C@H](N)C(=O)O [L-NMMA, N^G-methyl-L-arginine]
utrophin labelling (utrophin [1]; 10^-3 M): basal level of utrophin | utrophin labelling (utrophin [2]; 10^-3 M): basal level of utrophin

N=C(N)NCCCC(N)C(=O)O [L-arginine, 2-amino-5-guanidinovaleric acid]
utrophin labelling (utrophin [1]; 2.10^-3 M): utrophin labelling increased | utrophin at the sarcolemma (immunolocalisation) (utrophin [3]): increase in utrophin levels under the sarcolenima; also recorded: increased the utrophin level already present in the sarcolemma | utrophin level (Western blot) (utrophin [4]): evident increase of utrophin | utrophin level (Western blot) (utrophin [5]): evident increase of utrophin | utrophin at the sarcolemma (immunolocalisation) (utrophin [6]): utrophin is seen under the sarcolemma; also recorded: utrophin was detected underneath the sarcolemma | utrophin labelling (utrophin [7]): increased labelling of utrophin was also observed to a lesser extent | utrophin labelling (utrophin [8]): increased labelling of utrophin was also observed to a lesser extent | utrophin level (Western blot) (utrophin [9]): increase in utrophin after treatment with L-arginine was confirmed | utrophin labelling (utrophin [2]; 2.10^-3 M): utrophin labelling increased

O=c1onc2cnc3ccccc3n12 [ODQ]
utrophin synthesis induced by NO (labelling) (utrophin [1]; [10]): inhibited | utrophin synthesis induced by NO (labelling) (utrophin [2]; [10]): inhibited

N=c1c[n+](N2CCOCC2)[n-]o1 [SIN-1, 3-morpholino-sydnonimine]
utrophin labelling (utrophin [1]; 10^-3 M): utrophin labelling increased | utrophin labelling (utrophin [7]): increased labelling of utrophin was also observed to a lesser extent | utrophin labelling (utrophin [8]): increased labelling of utrophin was also observed to a lesser extent | utrophin labelling (utrophin [2]; 10^-3 M): utrophin labelling increased

NC(=O)NO [hydroxyurea]
utrophin labelling (utrophin [1]; 10^-4 M): increases utrophin labelling in remarkable manner | utrophin labelling (utrophin [2]; 10^-4 M): increases utrophin labelling in remarkable manner
